The text below walks through data of ChEMBL document CHEMBL5260810, “Inhibition of bromodomain-containing protein 9 for the prevention of epigenetically-defined drug resistance” (Bioorg Med Chem Lett, 2017).

SMILES strings stand for the structures.

Chromatin remodeling regulator CECR2, sequence (Q9BXF3 whole entry): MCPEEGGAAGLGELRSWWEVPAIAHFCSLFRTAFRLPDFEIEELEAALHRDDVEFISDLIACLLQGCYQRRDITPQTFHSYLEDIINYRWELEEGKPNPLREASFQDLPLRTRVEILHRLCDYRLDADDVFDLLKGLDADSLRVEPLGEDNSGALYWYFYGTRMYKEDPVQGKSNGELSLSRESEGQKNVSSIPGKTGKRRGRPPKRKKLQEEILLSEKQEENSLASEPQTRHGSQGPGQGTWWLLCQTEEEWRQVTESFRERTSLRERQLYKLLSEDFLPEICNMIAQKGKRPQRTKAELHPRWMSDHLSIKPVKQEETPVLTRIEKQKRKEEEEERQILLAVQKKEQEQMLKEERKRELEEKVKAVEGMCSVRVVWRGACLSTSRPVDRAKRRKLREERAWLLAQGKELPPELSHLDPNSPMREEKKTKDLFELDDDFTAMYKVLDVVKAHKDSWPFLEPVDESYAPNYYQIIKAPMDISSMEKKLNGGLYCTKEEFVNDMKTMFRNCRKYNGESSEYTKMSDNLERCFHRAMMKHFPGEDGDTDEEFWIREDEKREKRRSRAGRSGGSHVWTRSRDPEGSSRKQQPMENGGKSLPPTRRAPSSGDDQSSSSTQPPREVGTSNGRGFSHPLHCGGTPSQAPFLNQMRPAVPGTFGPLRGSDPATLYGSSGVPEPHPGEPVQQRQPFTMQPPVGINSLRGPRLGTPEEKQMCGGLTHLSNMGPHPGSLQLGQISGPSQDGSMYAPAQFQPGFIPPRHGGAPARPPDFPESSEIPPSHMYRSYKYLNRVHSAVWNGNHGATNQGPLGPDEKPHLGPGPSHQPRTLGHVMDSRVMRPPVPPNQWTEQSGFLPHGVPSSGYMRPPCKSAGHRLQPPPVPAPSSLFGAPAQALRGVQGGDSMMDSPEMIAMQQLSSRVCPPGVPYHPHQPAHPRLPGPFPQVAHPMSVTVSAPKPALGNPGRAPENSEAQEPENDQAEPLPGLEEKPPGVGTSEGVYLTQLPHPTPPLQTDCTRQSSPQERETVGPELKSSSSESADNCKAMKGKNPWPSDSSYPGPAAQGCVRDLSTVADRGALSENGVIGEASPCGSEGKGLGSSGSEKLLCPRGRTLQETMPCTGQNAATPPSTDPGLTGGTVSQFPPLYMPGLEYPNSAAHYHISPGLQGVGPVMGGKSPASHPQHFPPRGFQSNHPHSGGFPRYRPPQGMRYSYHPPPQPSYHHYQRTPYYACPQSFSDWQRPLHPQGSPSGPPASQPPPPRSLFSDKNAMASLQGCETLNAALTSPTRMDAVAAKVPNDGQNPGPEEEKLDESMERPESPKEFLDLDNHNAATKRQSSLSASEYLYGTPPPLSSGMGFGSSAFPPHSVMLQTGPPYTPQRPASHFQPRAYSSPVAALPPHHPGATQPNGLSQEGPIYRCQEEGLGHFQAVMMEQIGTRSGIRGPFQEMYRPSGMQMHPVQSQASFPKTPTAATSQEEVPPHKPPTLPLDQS
Tyrosine-protein kinase ABL1 (Homo sapiens), sequence (P00519 whole entry): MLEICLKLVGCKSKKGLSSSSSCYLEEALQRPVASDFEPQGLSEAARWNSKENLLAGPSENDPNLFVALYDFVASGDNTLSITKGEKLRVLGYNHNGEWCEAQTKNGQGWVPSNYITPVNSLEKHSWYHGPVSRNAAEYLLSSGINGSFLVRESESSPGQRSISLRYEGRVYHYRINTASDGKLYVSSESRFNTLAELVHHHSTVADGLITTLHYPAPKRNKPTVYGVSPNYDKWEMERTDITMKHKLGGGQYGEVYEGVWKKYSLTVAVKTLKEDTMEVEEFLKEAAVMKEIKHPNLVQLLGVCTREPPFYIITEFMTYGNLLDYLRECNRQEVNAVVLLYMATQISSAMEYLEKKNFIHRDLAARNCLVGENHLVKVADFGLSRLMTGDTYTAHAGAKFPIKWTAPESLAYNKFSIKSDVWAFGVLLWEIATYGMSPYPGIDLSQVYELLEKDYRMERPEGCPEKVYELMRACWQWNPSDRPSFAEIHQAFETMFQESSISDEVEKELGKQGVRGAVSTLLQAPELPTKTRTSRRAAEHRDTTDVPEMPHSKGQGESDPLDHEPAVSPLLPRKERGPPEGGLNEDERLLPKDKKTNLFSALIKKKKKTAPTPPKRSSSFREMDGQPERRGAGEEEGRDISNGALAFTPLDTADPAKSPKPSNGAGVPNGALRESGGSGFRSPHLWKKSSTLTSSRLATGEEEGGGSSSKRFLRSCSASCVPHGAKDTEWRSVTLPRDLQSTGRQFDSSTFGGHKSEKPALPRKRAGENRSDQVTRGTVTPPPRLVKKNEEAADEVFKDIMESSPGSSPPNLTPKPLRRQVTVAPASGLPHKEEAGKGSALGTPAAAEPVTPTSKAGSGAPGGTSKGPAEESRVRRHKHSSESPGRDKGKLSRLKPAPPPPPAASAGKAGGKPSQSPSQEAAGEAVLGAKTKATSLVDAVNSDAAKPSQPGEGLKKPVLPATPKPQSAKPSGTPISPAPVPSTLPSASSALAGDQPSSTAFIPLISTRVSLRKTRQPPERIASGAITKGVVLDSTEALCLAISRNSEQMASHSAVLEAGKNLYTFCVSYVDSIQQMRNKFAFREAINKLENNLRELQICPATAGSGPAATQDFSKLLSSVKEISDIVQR
Tyrosine-protein kinase Lck (Homo sapiens), sequence (P06239 2-509 limits assumed): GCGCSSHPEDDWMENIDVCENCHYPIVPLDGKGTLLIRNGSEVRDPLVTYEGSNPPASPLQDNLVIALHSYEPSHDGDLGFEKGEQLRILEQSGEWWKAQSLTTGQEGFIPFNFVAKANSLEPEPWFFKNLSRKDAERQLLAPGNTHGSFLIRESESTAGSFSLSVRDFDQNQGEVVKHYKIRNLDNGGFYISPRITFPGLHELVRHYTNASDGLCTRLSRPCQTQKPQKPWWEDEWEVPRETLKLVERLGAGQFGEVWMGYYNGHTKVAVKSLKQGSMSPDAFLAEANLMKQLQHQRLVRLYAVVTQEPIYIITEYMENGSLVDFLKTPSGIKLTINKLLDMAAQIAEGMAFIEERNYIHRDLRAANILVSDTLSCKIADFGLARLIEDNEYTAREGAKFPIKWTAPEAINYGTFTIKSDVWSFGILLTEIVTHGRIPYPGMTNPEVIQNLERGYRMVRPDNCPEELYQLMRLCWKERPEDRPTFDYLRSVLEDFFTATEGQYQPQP

The first test relates to Ramos. The test can be described thus: Cytotoxicity against human Ramos cells measured after 8 days. The class given is functional, cell-based. The note with it: 192 h.
For orientation: IC50 means the point on the concentration scale where inhibition reaches its midpoint. With `C/C=C/Cn1cc(-c2ccc(C(=O)N3CCOCC3)cc2)c2cc[nH]c2c1=O`, half-maximal inhibition (IC50) required 20 µM.

System in the next test: not listed separately
Put plainly: Cytotoxicity against human HCC2302 cells measured after 8 days. In kind it is functional, cell-based. The note with it: HCC2302, 192 h.
The compound `C/C=C/Cn1cc(-c2ccc(C(=O)N3CCOCC3)cc2)c2cc[nH]c2c1=O` registered an IC50 of 20 µM.

The next test deals with T1, Adenosine receptor A1 (Homo sapiens) (UniProt P30542).
T1 sequence (whole entry): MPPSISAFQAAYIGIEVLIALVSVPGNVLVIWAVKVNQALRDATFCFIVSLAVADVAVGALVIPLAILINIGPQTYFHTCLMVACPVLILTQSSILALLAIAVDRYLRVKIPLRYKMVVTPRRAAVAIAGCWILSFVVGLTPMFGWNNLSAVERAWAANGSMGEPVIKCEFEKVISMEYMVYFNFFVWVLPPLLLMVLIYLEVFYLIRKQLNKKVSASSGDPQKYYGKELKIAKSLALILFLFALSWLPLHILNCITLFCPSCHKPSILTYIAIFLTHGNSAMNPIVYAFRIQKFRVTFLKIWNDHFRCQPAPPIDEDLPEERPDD
Put plainly: Displacement of [3H]-DPCPX from human recombinant adenosine A1 receptor at 10 uM after 60 mins by scintillation counting analysis relative to control.
Settings: not given
A general note: Displacement assays read how much labelled ligand stays bound in the presence of the test substance.
Regarding `C/C=C/Cn1cc(-c2ccc(C(=O)N3CCOCC3)cc2)c2cc[nH]c2c1=O`, the Activity came out at 10%.

The target in the next test is Tyrosine-protein kinase Yes (Homo sapiens) (UniProt P07947). The test can be described thus: Inhibition of Yes (unknown origin) at 1 uM relative to control.
Tyrosine-protein kinase Yes (Homo sapiens), sequence (P07947 2-543 limits assumed): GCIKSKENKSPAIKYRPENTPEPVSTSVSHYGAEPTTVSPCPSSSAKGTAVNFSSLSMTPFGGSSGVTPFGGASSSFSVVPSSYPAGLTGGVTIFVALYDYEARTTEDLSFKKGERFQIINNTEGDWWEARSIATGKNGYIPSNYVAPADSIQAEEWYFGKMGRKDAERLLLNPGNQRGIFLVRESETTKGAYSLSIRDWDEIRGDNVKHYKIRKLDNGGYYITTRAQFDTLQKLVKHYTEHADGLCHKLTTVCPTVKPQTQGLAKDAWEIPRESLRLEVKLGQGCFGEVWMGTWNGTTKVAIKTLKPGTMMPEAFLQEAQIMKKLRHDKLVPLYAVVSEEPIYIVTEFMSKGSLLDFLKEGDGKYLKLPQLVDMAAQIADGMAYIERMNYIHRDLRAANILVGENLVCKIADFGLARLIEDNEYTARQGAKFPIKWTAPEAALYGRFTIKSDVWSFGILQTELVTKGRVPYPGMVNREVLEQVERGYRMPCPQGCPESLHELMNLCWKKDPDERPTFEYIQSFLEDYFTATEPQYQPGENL
Settings: not given
What is called inhibition is the relative decrease from the control value, in per cent. In the case of `C/C=C/Cn1cc(-c2ccc(C(=O)N3CCOCC3)cc2)c2cc[nH]c2c1=O`, the inhibition came to 11.5%.

The subject of another test is NCI-H1703. The test can be described thus: Cytotoxicity against human NCI-H1703 cells measured after 8 days. Particulars: NCI-H1703, 192 h. In kind it is functional, cell-based.
Consider `C/C=C/Cn1cc(-c2ccc(C(=O)N3CCOCC3)cc2)c2cc[nH]c2c1=O`, for which the IC50 amounted to 20 µM.

A further test has as its target Receptor-interacting serine/threonine-protein kinase 2 (Homo sapiens) (UniProt O43353). Put plainly: Inhibition of RIPK2 (unknown origin) at 1 uM relative to control.
Settings: not given
Regarding `C/C=C/Cn1cc(-c2ccc(C(=O)N3CCOCC3)cc2)c2cc[nH]c2c1=O`, the inhibition is -4.6%.

A further test addresses Tyrosine-protein kinase Lck (Homo sapiens) (UniProt P06239). The test can be described thus: Inhibition of LCK (unknown origin) at 1 uM relative to control.
Settings: not given
Consider `C/C=C/Cn1cc(-c2ccc(C(=O)N3CCOCC3)cc2)c2cc[nH]c2c1=O`, for which the inhibition was 6.5%.

A further test has as its system JIMT-1. The test can be described thus: Cytotoxicity against human JIMT-1 cells measured after 8 days. The class given is functional, cell-based. The note with it: JIMT-1, 192 h.
For the compound `C/C=C/Cn1cc(-c2ccc(C(=O)N3CCOCC3)cc2)c2cc[nH]c2c1=O`, half-maximal inhibition (IC50) was put at 20 µM.

For a further test, the target named is Histamine H1 receptor (Homo sapiens) (UniProt P35367). Put plainly: Displacement of [3H]pyrilamine from human recombinant histamine H1 receptor at 10 uM after 60 mins by scintillation counting analysis relative to control.
Settings: not given
Take `C/C=C/Cn1cc(-c2ccc(C(=O)N3CCOCC3)cc2)c2cc[nH]c2c1=O`: the Activity came out at 0%.

A further test has as its system HT-29. Put plainly: Cytotoxicity against human HT-29 cells measured after 8 days. The class given is functional, cell-based. Particulars: HT-29, 192 h.
`C/C=C/Cn1cc(-c2ccc(C(=O)N3CCOCC3)cc2)c2cc[nH]c2c1=O` gave an IC50 of 20 µM.

The next test has as its system SW480. Put plainly: Cytotoxicity against human SW480 cells measured after 8 days. In kind it is functional, cell-based. The note with it: SW480, 192 h.
The compound `C/C=C/Cn1cc(-c2ccc(C(=O)N3CCOCC3)cc2)c2cc[nH]c2c1=O` registered an IC50 of 20 µM.

A further test deals with SW1573. Put plainly: Cytotoxicity against human SW1573 cells measured after 8 days. The class given is functional, cell-based. Particulars: SW1573, 192 h.
The compound `C/C=C/Cn1cc(-c2ccc(C(=O)N3CCOCC3)cc2)c2cc[nH]c2c1=O` displayed an IC50 of 20 µM.

Another test has as its system MDA-MB-468. The test can be described thus: Cytotoxicity against human MDA-MB-468 cells measured after 8 days. In kind it is functional, cell-based. Particulars: MDA-MB-468, 192 h.
In turn, `C/C=C/Cn1cc(-c2ccc(C(=O)N3CCOCC3)cc2)c2cc[nH]c2c1=O` came in with an IC50 of 20 µM.

Another test concerns SR. The test can be described thus: Cytotoxicity against human SR cells measured after 8 days. In kind it is functional, cell-based. Particulars: 192 h.
`C/C=C/Cn1cc(-c2ccc(C(=O)N3CCOCC3)cc2)c2cc[nH]c2c1=O` registered an IC50 of 20 µM.

System in another test: not listed separately
Put plainly: Cytotoxicity against human NCI-H322T cells measured after 8 days. The note with it: 192 h. The class given is functional, cell-based.
`C/C=C/Cn1cc(-c2ccc(C(=O)N3CCOCC3)cc2)c2cc[nH]c2c1=O` came in with an IC50 of 20 µM.

Another test deals with Ribosomal protein S6 kinase alpha-2 (Homo sapiens) (UniProt Q15349). Put plainly: Inhibition of RSK3 (unknown origin) at 1 uM relative to control.
Ribosomal protein S6 kinase alpha-2 (Homo sapiens), sequence (Q15349 whole entry): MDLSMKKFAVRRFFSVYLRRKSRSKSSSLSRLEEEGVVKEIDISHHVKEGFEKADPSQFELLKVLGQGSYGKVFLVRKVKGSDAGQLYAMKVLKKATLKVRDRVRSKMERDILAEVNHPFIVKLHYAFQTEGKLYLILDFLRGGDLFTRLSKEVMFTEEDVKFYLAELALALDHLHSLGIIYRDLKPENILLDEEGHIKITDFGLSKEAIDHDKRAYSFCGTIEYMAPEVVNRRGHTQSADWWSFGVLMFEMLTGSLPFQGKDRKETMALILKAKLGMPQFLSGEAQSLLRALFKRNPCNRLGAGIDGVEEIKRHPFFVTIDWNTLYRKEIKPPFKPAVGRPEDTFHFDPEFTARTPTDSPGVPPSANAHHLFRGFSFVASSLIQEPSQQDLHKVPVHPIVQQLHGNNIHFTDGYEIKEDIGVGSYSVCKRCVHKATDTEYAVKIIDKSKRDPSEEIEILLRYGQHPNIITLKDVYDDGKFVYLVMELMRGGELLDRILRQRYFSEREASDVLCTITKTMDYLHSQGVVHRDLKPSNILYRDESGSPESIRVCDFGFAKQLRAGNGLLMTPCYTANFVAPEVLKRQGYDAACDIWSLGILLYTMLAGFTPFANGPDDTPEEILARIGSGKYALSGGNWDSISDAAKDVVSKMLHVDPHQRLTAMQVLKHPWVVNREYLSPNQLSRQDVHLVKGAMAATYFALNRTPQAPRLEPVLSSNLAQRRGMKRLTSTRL
Settings: not given
As to `C/C=C/Cn1cc(-c2ccc(C(=O)N3CCOCC3)cc2)c2cc[nH]c2c1=O`, the inhibition is -4.3%.

The next test relates to NCI-H226. The test can be described thus: Cytotoxicity against human NCI-H226 cells measured after 8 days. The class given is functional, cell-based. Particulars: NCI-H226, 192 h.
In the case of `C/C=C/Cn1cc(-c2ccc(C(=O)N3CCOCC3)cc2)c2cc[nH]c2c1=O`, it took 20 µM to reach half-maximal inhibition (IC50).

The next test has as its system Caco-2. The test can be described thus: Cytotoxicity against human Caco-2 cells measured after 8 days. In kind it is functional, cell-based. Particulars: Caco-2, 192 h.
In turn, `C/C=C/Cn1cc(-c2ccc(C(=O)N3CCOCC3)cc2)c2cc[nH]c2c1=O` showed an IC50 of 20 µM.

Another test addresses Chromatin remodeling regulator CECR2 (Homo sapiens, UniProt Q9BXF3). The test can be described thus: Displacement of biotinylated small-molecule ligand from recombinant His-tagged CECR2 (unknown origin) measured after 10 mins by TR-FRET assay.
Settings: not given
In general terms: TR-FRET usually uses a lanthanide donor and a delayed reading to cut background.
For `C/C=C/Cn1cc(-c2ccc(C(=O)N3CCOCC3)cc2)c2cc[nH]c2c1=O`, the IC50 is 2.9 µM.
The same measure, in the same setting: as for `C/C=C/Cn1cc(-c2cc(OC)c(C(C)(C)O)cc2OC)c2cc(C)[nH]c2c1=O`, the figure is 4.3 µM.

The target in a further test is 5-hydroxytryptamine receptor 4 (Homo sapiens) (UniProt Q13639). The test can be described thus: Inhibition of human 5HT4e at 10 uM relative to control.
Settings: not given
Turning to `C/C=C/Cn1cc(-c2ccc(C(=O)N3CCOCC3)cc2)c2cc[nH]c2c1=O`, the inhibition was 2%.

System in another test: not listed separately
The test can be described thus: Cytotoxicity against human NCI-H2810 cells measured after 8 days. The class given is functional, cell-based. Particulars: NCI-H2810, 192 h.
Compound `C/C=C/Cn1cc(-c2ccc(C(=O)N3CCOCC3)cc2)c2cc[nH]c2c1=O` came in with an IC50 of 20 µM.

For a further test, the species on record is Rattus norvegicus. Put plainly: Displacement of [3H]batrachotoxinin from rat brain sodium voltage gated ion channel site 2 at 10 uM after 60 mins by scintillation counting analysis relative to control.
Settings: not given
`C/C=C/Cn1cc(-c2ccc(C(=O)N3CCOCC3)cc2)c2cc[nH]c2c1=O` returned an Activity of 11%.

A further test concerns NCI-H1993. Put plainly: Cytotoxicity against human NCI-H1993 cells measured after 8 days. In kind it is functional, cell-based. Particulars: NCI-H1993, 192 h.
Regarding `C/C=C/Cn1cc(-c2ccc(C(=O)N3CCOCC3)cc2)c2cc[nH]c2c1=O`, the IC50 came to 20 µM.

For a further test, the target named is RAC-alpha serine/threonine-protein kinase (Homo sapiens) (UniProt P31749). The test can be described thus: Inhibition of AKT1 (unknown origin) at 1 uM relative to control.
RAC-alpha serine/threonine-protein kinase (Homo sapiens), sequence (P31749 whole entry): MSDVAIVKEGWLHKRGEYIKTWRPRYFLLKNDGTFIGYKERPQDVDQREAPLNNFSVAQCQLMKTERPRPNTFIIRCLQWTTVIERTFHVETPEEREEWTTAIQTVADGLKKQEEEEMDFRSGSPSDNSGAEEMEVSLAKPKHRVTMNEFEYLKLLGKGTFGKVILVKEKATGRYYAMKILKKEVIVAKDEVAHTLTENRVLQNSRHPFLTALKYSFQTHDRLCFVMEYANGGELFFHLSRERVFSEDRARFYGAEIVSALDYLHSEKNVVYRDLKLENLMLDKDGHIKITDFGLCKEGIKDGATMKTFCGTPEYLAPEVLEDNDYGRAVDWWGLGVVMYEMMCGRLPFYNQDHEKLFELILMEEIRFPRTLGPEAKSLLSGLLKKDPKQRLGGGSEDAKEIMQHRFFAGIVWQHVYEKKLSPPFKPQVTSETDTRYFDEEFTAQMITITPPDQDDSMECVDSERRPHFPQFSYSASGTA
Settings: not given
With `C/C=C/Cn1cc(-c2ccc(C(=O)N3CCOCC3)cc2)c2cc[nH]c2c1=O`, the inhibition is -2.1%.

A further test concerns the target Tyrosine-protein kinase ABL1 (Homo sapiens) (UniProt P00519). Put plainly: Inhibition of Abl (unknown origin) at 1 uM relative to control.
Settings: not given
As for `C/C=C/Cn1cc(-c2ccc(C(=O)N3CCOCC3)cc2)c2cc[nH]c2c1=O`, the inhibition was -4.2%.

System in the next test: not listed separately
Put plainly: Cytotoxicity against human NCE-G 111 cells measured after 8 days. In kind it is functional, cell-based. The note with it: NCE-G 111, 192 h.
Turning to `C/C=C/Cn1cc(-c2ccc(C(=O)N3CCOCC3)cc2)c2cc[nH]c2c1=O`, the IC50 was 20 µM.

Another test deals with NCI-H292. Put plainly: Cytotoxicity against human NCI-H292 cells measured after 8 days. Particulars: NCI-H292, 192 h. The class given is functional, cell-based.
The compound `C/C=C/Cn1cc(-c2ccc(C(=O)N3CCOCC3)cc2)c2cc[nH]c2c1=O` yielded an IC50 of 20 µM.

For another test, the system named is DLD-1. Put plainly: Cytotoxicity against human DLD-1 cells measured after 8 days. The class given is functional, cell-based. Particulars: DLD-1, 192 h.
Compound `C/C=C/Cn1cc(-c2ccc(C(=O)N3CCOCC3)cc2)c2cc[nH]c2c1=O` displayed an IC50 of 20 µM.
